Measurements: article PMC8237267 (Journal of Medicinal Chemistry, 2021)
pIC50: −log10 of the molar value.

Columns and labels:
[1] = system: SUP-T11; assay: Cytotoxicity assay (Cell Titer-Blue, 72 h); type: cell-based; details: SUPT11; T-ALL/T-PLL like; one representative of three experiments; read-out: IC50 (heat map) SUP-T11
[2] = system: SNK6; assay: Cytotoxicity assay (Cell Titer-Blue, 72 h); type: cell-based; details: T/NK cell lymphoma, one representative of three experiments, read-out: IC50 (heat map) SNK6
[3] = system: MV4-11 cells; assay: FACS apoptosis detection assay (Annexin V/PI); type: cell-based; details: MV4-11, 18 h
Method: MV4-11 cells were prepared, dosed, and washed with cold 1× PBS. The resulting cell pellets were resuspended in 1× Binding Buffer (1 × 10^6 cell/mL) from the FITC Annexin V Apoptosis Detection Kit I (BD Pharmingen). Subsequently, the dyes annexin V (5 μL) and propidium iodide (PI, 5 μL) were added to 2.5 × 10^5 cells (250 μL). The suspension was thoroughly mixed and incubated in the dark for 15 min. Following the addition of 250 μL of 1× binding buffer, the cells were analyzed by flow cytometry within 1 h using the Cytoflex S system (Beckman Coulter).

[4] = system: MOLM-13; assay: Cytotoxicity assay (Cell Titer-Blue, 72 h); type: cell-based; details: Homo sapiens, AML, one representative of three experiments, read-out: IC50 (heat map) MOLM-13
[5] = system: MRC-9; assay: Cytotoxicity assay (Cell Titer-Blue, 72 h); type: cell-based; details: MRC9; MRC-9 (healthy fibroblasts); read-out: In cellulo IC50 MRC-9
[6] = system: DERL-2; assay: Cytotoxicity assay (Cell Titer-Blue, 72 h); type: cell-based; details: γδ T-NHL; one representative of three experiments; read-out: IC50 (heat map) DERL-2
[7] = system: KHYG-1; assay: Cytotoxicity assay (Cell Titer-Blue, 72 h); type: cell-based; details: ANKL, one representative of three experiments, read-out: IC50 (heat map) KHYG-1
[8] = system: pPF (primary pooled fibroblasts from 250 donors); assay: Cytotoxicity assay (Cell Titer-Blue, 72 h); type: cell-based; details: Fibroblast, read-out: Cellular IC50 pPF
[9] = system: acetylated histone H3; assay: Western blot in MV4-11 cells; type: cell-based; details: MV4-11, 6 h
Method: (§1) Briefly, MV4-11 cells were incubated with inhibitors prior to cell lysis with radioimmunoprecipitation assay (RIPA) buffer (20 mM Tris pH 7.4, 150 mM NaCl, 0.5% deoxycholate, 1% Triton X-100, and 0.1% sodium dodecyl sulfate (SDS)). Total protein content was determined through a BCA assay (ThermoFisher), resolved via a 4–20% polyacrylamide SDS gel, and transferred to a nitrocellulose membrane (Bio-Rad). The membranes were blocked with a 5% solution (skimmed milk powder in PBS-T). This was followed by incubation at 4 °C (overnight) with the following antibodies: acetylated α-tubulin mouse monoclonal (MABT868, EMD Millipore), acetylated histone H3 (Ac-Lys18, 07–354, Sigma), PARP-1 (ab227244, Abcam), apoptosis Western blot cocktail (136812, Abcam), cleaved PARP-1 (ab32561, Abcam), and HSC70 (sc-7298, Santa Cruz). Following overnight incubation, horseradish peroxidase (HRP)-conjugated goat anti-mouse IgG secondary antibody (7076, Cell Signaling) or HRP-linked anti-rabbit IgG secondary antibody (7074, Cell Signaling) was applied to the membrane in a 1:5000 dilution. The bands were visualized using clarity Western ECL substrate luminal/enhancer solution and peroxide solution. Western blotting analysis was carried out using Image lab software (Bio-Rad).[47],[50],[70]

[10] = system: MV4-11; assay: Cytotoxicity assay (Cell Titer-Blue, 72 h); type: cell-based; details: Homo sapiens; MV4-11 (AML); read-out: In cellulo IC50 MV4-11
[11] = system: NK-92; assay: Cytotoxicity assay (Cell Titer-Blue, 72 h); type: cell-based; details: NK92; LGL; one representative of three experiments; read-out: IC50 (heat map) NK-92
[12] = system: cleavage of PARP-1 and Caspase-3; assay: Western blot of apoptosis markers in MV4-11 cells; type: cell-based; details: MV4-11, 6 h, 5 μM
Method: as §1

[13] = system: HUVEC (primary human umbilical vein endothelial cells); assay: Cytotoxicity assay (Cell Titer-Blue, 72 h); type: cell-based; details: read-out: Cellular IC50 HUVEC
[14] = In vivo PK study in CD-1 male mice; details: mouse, plasma, CD-1 mice, IP, 20 mg/kg
[15] = system: MOLT4; assay: Cytotoxicity assay (Cell Titer-Blue, 72 h); type: cell-based; details: Homo sapiens, MOLT-4; T-ALL; one representative of three experiments; read-out: IC50 (heat map) MOLT4
[16] = system: SU-DHL-1; assay: Cytotoxicity assay (Cell Titer-Blue, 72 h); type: cell-based; details: Homo sapiens, ALK+ ALCL, one representative of three experiments, read-out: IC50 (heat map) SU-DHL-1
[17] = system: NHF (normal human fibroblasts); assay: Cytotoxicity assay (Cell Titer-Blue, 72 h); type: cell-based; details: Fibroblast, read-out: Cellular IC50 NHF
[18] = system: DND-41; assay: Cytotoxicity assay (Cell Titer-Blue, 72 h); type: cell-based; details: DND41; T-ALL; one representative of three experiments; read-out: IC50 (heat map) DND-41
[19] = system: Myla; assay: Cytotoxicity assay (Cell Titer-Blue, 72 h); type: cell-based; details: CTCL; one representative of three experiments; read-out: IC50 (heat map) Myla
[20] = system: Mac1; assay: Cytotoxicity assay (Cell Titer-Blue, 72 h); type: cell-based; details: ALK- ALCL; one representative of three experiments; read-out: IC50 (heat map) Mac1
Method: (§2) The PTCL cell lines, KHYG-1, NK-92, SNK6, DERL-2, Mac1, 1305 Myla, Hut78, SU-DHL-1 or T-ALL cell lines SUP-T11, DND-41, and MOLT4 were maintained in RPMI-1640 supplemented with 10% FBS, 0.06 g/L penicillin/0.1 g/L streptomycin (Pen/Strep, Gibco), and 2 mM L-glutamine (Gibco). Culture media of KHYG-1, NK-92, SNK6, and DERL-2 cells was additionally supplemented with 2.5 ng/mL recombinant human IL-2 (ImmunoTools GmbH, Germany). The authenticity of PTCL cell lines was confirmed by analysis of highly polymorphic short tandem repeat loci (STR) using the PowerPlex 16 HS System (Promega; performed by Microsynth AG, Switzerland).
(§3) Cells were plated in 96-well flat-bottom sterile culture plates with low-evaporation lids (Costar #3997). The inhibitors and a vehicle control (0.5% DMSO) were added to the cells following 24 h. After 72 h, Cell Titer-Blue (Promega #G808A) was added to each well (20 μL), and the fluorescence was measured at 560/590 nm using a Cytation S63 spectrophotometer (BioTek) or a GloMax Discover Microplate Reader (Promega, Madison, WI, USA). GraphPad Prism 6.0 (GraphPad Software Inc.) was used to determine the IC50 values.

[21] = system: Hut78; assay: Cytotoxicity assay (Cell Titer-Blue, 72 h); type: cell-based; details: Homo sapiens, CTCL, one representative of three experiments, read-out: IC50 (heat map) Hut78
Method: as §2, §3

[22] = system: acetylation of α-tubulin; assay: Immunofluorescence assay in HeLa cells; type: cell-based; details: 6 h, increasing doses
Method: HeLa cells were plated to subconfluency on a 96-well plate (clear bottom black from Fisher Scientific). As above, inhibitors were introduced following 24 h. The cells were washed with 1× PBS, fixed with 4% formaldehyde (Millipore Sigma), permeabilized with 1% Triton X-100 (Millipore Sigma), and blocked in 5% bovine serum albumin (BSA) (BioShop) for 1 h at room temperature. Following this treatment, the cells were incubated in a cocktail composed of acetylated α-tubulin mouse monoclonal (1:100 dilution, MD Millipore) and acetylated histone H3 (1:50 dilution, Ac-Lys18, Sigma) antibodies. Secondary antibodies anti-mouse Alexa Fluor 647 and anti-rabbit Alexa Fluor 488 were used for immunofluorescent detection. Cells were counterstained for nucleic acids using 4′,6-diamidino-2-phenylindole (DAPI) (ThermoFisher Scientific). The cells were imaged with a Cytation S63 spectrophotometer and the fluorescence intensity was determined using ImageJ (n = 3). Two-way ANOVA with Tukey’s multiple comparisons test were performed using GraphPad Prism 6.0 (GraphPad Software Inc.). A p-value ≤ 0.05 was considered significant.

With `O=C(CCCCCCNC(=O)c1cnc(N(c2ccccc2)c2ccccc2Cl)nc1)NO` [Citarinostat] the pIC50 [1] was 5.40, the pIC50 [2] was 5.72 and the “Early Apoptosis” value ([3]; 0.5 μM) was 9%. For the same molecule, the “Late Apoptosis” value ([3]; 1 μM) was 10%, the “Healthy (nonapoptotic)” value ([3]; 2 μM) was 47% and the pIC50 [4] was 5.70. It also gave a pIC50 [5] of under 4.52, a pIC50 [6] of 5.99 and a pIC50 [7] of 5.92. For the same molecule, the pIC50 [8] was 5.13, the “acetylated histone H3 levels (Western blot)” value [9] was “higher with citarinostat in comparison to KT-531” and the pIC50 [10] was 5.87. For the same molecule, the pIC50 [11] was 5.71, the “cleavage of PARP-1 and Caspase-3” value [12] was “absence of cleaved Caspase-3 and PARP-1” and the pIC50 [13] was 5.31. It also gave an AUC(0-t) ([14]; read-out: In vivo AUClast (overall exposure)) of 4160 ng·h/mL, a half-life ([14]; read-out: In vivo t1/2) of 15 min and a pIC50 [15] of 5.76. For the same molecule, the pIC50 [16] was 5.33, the pIC50 [17] was 5.24 and the pIC50 [18] was 5.71. For the same molecule, the pIC50 [19] was 5.10, the pIC50 [20] was 5.75 and the pIC50 [21] was 5.42. For the same molecule, the “acetylation of α-tubulin (immunofluorescence)” value [22] was “weaker acetylation as compared to KT-531”.
